We go through 1 compound from ChEMBL document CHEMBL4321852, “Structure-Based and Property-Driven Optimization of N-Aryl Imidazoles toward Potent and Selective Oral RORγt Inhibitors” (J Med Chem, 2019).

SMILES strings stand for the structures. Calls of active or inactive are those of the source. No cut-off for these calls is given here. A value given as a limit tells only on which side of the number the result lay.

The target in data set [1] is T1, Nuclear receptor ROR-gamma (Homo sapiens, UniProt P51449).
T1 sequence (P51449 whole entry): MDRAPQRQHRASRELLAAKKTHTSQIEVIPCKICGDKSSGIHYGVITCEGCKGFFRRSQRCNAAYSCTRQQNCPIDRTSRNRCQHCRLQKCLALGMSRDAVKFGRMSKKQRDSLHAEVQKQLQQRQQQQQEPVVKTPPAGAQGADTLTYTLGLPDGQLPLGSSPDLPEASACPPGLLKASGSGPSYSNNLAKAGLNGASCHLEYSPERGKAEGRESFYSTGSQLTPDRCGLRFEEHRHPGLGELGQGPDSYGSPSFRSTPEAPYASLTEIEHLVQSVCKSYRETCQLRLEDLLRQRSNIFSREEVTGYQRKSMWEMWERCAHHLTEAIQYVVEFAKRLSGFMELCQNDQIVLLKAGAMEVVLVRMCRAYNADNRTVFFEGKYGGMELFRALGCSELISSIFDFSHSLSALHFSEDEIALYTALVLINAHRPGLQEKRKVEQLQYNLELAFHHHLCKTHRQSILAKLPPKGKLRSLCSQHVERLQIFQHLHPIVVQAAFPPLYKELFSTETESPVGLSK
The data set can be described thus: Inhibition of human full-length eGFP-tagged RORgammat expressed in human HUT78 T-cells assessed as inhibition of PMA/CD3 monoclonal antibody stimulated IL-17 secretion after 48 hrs by ELISA. It is filed as cell-based. In general terms: ELISA stands for enzyme-linked immunosorbent assay.

The nature of data set [2]: Inverse agonist activity at RORgammat in rat whole blood assessed as reduction in Con A/IL-23-stimulated IL-17 secretion after 72 hrs by ELISA.
Data set [3] is described as follows: Volume of distribution at steady state in Sprague-Dawley rat at 1 mg/kg, iv. It is filed as ADME, organism-based. The following applies: in vivo, read-out: Vdss.
Data set [4] in a line: Terminal half life in Sprague-Dawley rat at 1 mg/kg, iv. It is filed as ADME, organism-based. The following applies: in vivo, read-out: beta t1/2 (converted).
The nature of data set [5]: Dose normalized AUC in Sprague-Dawley rat at 1 mg/kg, iv. It is filed as ADME, organism-based. The following applies: in vivo.
A short description of data set [6]: Dose normalized AUC in DA rat at 5 mg/kg, po. In kind it is ADME, organism-based. The following applies: in vivo.
A short description of data set [7]: Oral bioavailability in DA rat at 3 mg/kg. The note with it: in vivo. It is filed as ADME, organism-based.
Data set [8] addresses T2, Nuclear receptor ROR-alpha (Homo sapiens, UniProt P35398).
T2 sequence (P35398 whole entry): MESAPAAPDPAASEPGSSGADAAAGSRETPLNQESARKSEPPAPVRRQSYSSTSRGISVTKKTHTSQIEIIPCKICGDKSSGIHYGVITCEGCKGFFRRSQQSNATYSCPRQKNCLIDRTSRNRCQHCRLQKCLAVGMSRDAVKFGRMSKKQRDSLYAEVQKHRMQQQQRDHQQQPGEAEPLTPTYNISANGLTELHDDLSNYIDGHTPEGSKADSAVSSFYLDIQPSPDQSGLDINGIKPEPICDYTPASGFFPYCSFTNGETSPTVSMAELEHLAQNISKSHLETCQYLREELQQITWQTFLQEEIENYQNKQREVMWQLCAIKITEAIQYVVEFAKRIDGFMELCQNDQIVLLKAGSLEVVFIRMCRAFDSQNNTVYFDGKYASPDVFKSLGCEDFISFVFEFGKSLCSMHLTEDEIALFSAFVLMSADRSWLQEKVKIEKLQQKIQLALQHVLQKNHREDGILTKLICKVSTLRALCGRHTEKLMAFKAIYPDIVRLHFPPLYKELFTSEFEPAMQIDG
Nature of the data set: Inhibition of Gal4-tagged RORalpha LBD (unknown origin) by cell based luciferase reporter gene assay. Background: A reporter such as luciferase makes a cellular process visible.

Data set [9] deals with T3, Retinoic acid receptor RXR-alpha (Homo sapiens, UniProt P19793).
T3 sequence (P19793 whole entry): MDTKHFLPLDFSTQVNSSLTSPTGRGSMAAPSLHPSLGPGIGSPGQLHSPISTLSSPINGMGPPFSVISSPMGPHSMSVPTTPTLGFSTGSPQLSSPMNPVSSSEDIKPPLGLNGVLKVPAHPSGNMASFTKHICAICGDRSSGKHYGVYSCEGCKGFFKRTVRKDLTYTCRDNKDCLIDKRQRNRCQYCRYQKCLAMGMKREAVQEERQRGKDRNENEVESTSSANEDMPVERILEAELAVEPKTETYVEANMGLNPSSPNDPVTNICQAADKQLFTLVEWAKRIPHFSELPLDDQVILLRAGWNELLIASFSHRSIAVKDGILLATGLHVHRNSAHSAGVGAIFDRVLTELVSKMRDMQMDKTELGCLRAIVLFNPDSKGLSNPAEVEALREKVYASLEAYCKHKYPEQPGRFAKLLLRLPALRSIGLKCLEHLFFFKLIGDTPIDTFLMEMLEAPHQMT
Nature of the data set: Inhibition of Gal4-tagged RXRalpha LBD (unknown origin) by cell based luciferase reporter gene assay.

Data set [10] has as its target T4, Peroxisome proliferator-activated receptor gamma (Homo sapiens, UniProt P37231).
T4 sequence (P37231 whole entry): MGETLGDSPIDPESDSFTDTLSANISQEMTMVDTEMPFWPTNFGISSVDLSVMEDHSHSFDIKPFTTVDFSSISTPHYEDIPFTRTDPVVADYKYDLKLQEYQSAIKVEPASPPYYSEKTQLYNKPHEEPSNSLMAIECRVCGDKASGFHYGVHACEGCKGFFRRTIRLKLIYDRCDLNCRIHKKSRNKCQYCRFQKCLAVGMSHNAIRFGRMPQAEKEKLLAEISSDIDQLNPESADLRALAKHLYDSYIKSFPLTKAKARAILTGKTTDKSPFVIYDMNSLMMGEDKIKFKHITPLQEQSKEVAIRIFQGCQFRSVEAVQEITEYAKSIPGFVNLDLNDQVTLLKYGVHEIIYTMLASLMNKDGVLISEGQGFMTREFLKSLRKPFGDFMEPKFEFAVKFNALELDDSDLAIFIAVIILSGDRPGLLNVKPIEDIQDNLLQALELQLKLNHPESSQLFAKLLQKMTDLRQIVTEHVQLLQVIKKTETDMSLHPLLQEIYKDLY
The data set can be described thus: Inhibition of Gal4-tagged PPARgamma LBD (unknown origin) by cell based luciferase reporter gene assay.

In data set [11] the test system is Rattus norvegicus. The data set can be described thus: Anti-inflammatory activity in mBSA/CFA-immunized Lewis rat delayed-type hypersensitivity model assessed as reduction in ear swelling at 1 mg/kg, po via gavage administered twice daily for 2 days treated prior to mBSA/CFA challenge measured after up to 50 hrs. It is filed as functional, organism-based.
Data set [12] has as its system Rattus norvegicus. The data set can be described thus: Anti-inflammatory activity in mBSA/CFA-immunized Lewis rat delayed-type hypersensitivity model assessed as reduction in frequencies of IL-17-producing draining lymph node cells at 1 to 15 mg/kg, po via gavage administered twice daily for 2 days treated prior to mBSA/CFA challenge. It is filed as functional, organism-based.

The IC50 is the concentration that gives 50% inhibition. What is called bioavailability is the share of a dose that reaches the circulation, judged against a reference dose that is usually intravenous. Low values mean poor availability, high ones good availability.

For the compound `Cc1c(C2(C(F)(F)F)CC2)nc(C2CC2)n1-c1c(Cl)ccc(N2CC3(CC(C(=O)O)C3)C2)c1Cl` (single isomer, unassigned; atropisomer), the IC50 in data set [1] was 70 nM; in [2] it was 702 nM; in [8], greater than 10000 nM; in [9], greater than 10000 nM; in data set [10] it was greater than 10000 nM. In data set [3], the Vd was found to be 1 L/kg. For the same compound, in [4], the half-life is 5.3 h. For the same compound, the figures for the AUC/dose in [5] and in data set [6] were 12680 nM·h and 11391 nM·h, respectively. Also, the bioavailability in [7] was found to be 90%. In data set [11], the outcome was inactive. For the same compound, the Activity result in [12] was “Dose-dependent effect”.
